In US10407395B2, “Benzimidazole compound and medical use thereof” (Sumitomo Dainippon Pharma Co., Ltd., priority 2015, dated 2019):
Read-outs that look alike come from different tables or passages of the source.

Tests used:
[1] = tested on: rats streptozotocin (STZ)-induced diabetic peripheral neuropathy model; test: Evaluation of analgesic effect (von Frey test) in streptozotocin-induced diabetic peripheral neuropathy model; type: in vivo, rat; details: male Wistar rats, 3 mg/kg of body weight, orally, one hour before measuring
Method: Test (2) Evaluation of Analgesic Effect in Streptozotocin-Induced Diabetic Peripheral Neuropathy Models
Using some typical compounds among the compounds of the present invention, the inhibitory effect for neuropathic pain was determined through the evaluation of analgesic effect in rats streptozotocin (STZ)-induced diabetic peripheral neuropathy model.
The disease animal model was prepared by means of a partially-modified method of Fox et al. (Pain 81, 307-316, 1999). STZ was intraperitoneally administered to 9-week old male Wistar rats in 45 mg/kg of body weight to prepare animal model suffering from diabetic peripheral neuropathy. The analgesic effect was evaluated by von Frey test. Specifically, mechanical sensitivity was measured by applying hairs (von Frey hair) to the plantar surface of the animal's hind paw, and then the reaction thresholds (50% paw withdrawal thresholds) for the mechanical stimulation was determined by using a formula based on Chaplan et al. (Journal of Neuroscience Methods 53, 55-63, 1994).
One and two days before evaluating the test compounds, the reaction thresholds were measured to obtain an average thereof, and the average value was used as a reference value obtained before the test compounds would be administered.
In order to reduce the variations of the averaged values among the test groups and the measured values in each group, the animals were divided into 4 to 5 groups.
In the evaluation test of the test compounds, the reaction thresholds were measured after administering each test compound. One hour before measuring the reaction thresholds, each test compound was administered in 3 mg/kg of body weight. The strength of analgesic effect of each test compound is expressed as the extension width (g) of reaction thresholds which is obtained by the calculation formula of (reaction threshold obtained after administering test compound)−(reaction threshold obtained before administering test compound).

[2] = target: human SCN9A (Nav 1.7) (Homo sapiens, UniProt Q15858); test: Measurement of Na ion current (Nav 1.7) by automated patch clamp assay in cells stably-expressing human SCN9A; type: cell-based; details: read-out: Inhibitory rate (%) of Na ion current; for inhibition at 100 µM: compound concentration 100 μmol/L (footnoted examples)
Sequence of human SCN9A (Nav 1.7) (Q15858 whole entry): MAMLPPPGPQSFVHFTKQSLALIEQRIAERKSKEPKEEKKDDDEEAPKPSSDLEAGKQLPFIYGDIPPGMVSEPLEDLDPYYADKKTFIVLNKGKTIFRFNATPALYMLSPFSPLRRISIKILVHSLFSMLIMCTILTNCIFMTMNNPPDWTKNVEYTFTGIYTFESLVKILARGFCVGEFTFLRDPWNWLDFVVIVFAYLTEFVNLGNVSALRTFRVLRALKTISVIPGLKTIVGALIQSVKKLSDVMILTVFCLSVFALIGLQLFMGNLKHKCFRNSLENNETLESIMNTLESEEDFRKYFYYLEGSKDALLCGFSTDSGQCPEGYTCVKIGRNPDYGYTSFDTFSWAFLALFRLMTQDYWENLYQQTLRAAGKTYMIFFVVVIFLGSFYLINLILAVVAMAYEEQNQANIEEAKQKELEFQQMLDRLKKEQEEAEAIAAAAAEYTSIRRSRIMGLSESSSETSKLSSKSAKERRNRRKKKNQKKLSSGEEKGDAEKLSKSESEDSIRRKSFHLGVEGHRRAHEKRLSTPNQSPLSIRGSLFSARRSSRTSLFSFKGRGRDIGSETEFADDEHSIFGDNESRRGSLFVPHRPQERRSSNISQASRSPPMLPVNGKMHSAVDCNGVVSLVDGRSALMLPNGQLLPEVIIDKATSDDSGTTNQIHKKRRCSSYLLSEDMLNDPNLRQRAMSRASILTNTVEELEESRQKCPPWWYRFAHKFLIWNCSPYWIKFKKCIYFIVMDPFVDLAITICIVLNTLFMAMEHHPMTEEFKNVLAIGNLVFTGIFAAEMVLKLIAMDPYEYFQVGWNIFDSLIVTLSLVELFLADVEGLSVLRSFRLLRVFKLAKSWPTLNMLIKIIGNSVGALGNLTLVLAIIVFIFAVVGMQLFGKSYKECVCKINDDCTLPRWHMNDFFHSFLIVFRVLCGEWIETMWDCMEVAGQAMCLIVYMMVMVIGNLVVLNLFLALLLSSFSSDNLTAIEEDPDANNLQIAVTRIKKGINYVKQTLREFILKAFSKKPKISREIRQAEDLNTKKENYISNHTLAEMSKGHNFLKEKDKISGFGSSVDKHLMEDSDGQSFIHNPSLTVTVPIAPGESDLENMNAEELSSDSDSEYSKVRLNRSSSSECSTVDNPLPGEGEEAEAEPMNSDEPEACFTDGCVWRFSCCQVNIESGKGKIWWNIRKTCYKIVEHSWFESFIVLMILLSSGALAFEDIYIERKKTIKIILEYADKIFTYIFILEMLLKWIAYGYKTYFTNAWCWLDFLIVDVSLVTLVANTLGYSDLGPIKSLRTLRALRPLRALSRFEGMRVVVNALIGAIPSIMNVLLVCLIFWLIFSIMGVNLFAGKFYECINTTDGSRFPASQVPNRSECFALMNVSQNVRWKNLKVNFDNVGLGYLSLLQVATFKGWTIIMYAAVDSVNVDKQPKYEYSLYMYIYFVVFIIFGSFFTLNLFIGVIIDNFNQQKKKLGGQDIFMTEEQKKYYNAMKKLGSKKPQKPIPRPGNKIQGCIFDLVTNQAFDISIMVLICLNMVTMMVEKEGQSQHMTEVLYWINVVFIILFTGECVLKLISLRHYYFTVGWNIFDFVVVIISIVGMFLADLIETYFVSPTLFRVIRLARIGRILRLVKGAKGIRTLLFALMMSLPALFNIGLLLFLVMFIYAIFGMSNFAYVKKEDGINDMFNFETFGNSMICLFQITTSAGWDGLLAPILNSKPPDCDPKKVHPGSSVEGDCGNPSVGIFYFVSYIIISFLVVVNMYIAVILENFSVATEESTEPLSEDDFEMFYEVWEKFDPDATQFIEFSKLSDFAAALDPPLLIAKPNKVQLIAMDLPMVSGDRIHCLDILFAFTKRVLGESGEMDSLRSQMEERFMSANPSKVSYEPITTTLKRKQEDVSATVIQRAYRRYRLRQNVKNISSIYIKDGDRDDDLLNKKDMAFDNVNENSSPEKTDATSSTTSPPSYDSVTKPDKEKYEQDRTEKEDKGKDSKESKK
Method: Measurement of Na Ion Current in Voltage-Dependent Na Channel Gene Expressed Cell Nav 1.7 current was measured by automated patch clamp assay using cells stably-expressing human SCN9A. Cells Stably-expressing Human SCN9A Tetracycline-induced cells stably-expressing SCN9A were obtained from ChanTest Corporation. […] Next day, the Na ion current was measured by automated patch clamp assay. Electrophysiologic Measurement of Na Ion Current The Na ion current was measured by automated patch clamp assay using the following extracellular solution and intracellular solution. […] The control of the stimulating pulse and the data acquisition were carried out using EPC10 amplifier and Patch Master Software (HEKA). Data were sampled at 10 kHz, and low-pass filtered at 3 kHz. All the measurements were carried out at room temperature. […] The inhibitory rate of the Na ion current by the test compounds was calculated according to the following calculating formula with the peak current value generated by the depolarizing pulse. […] The inhibitory rate of Na ion current by each Example Compound was evaluated.

[3] = compound concentration 10 μmol/L, holding potential inactivating 50% Nav 1.7 channel (around −60 mV)
[4] = holding potential inactivating 50% Nav 1.7 channel (around −60 mV)

SMILES	inhibition at 10 µM [2, 3] [%]	extension width (g) of reaction thresholds (50% paw withdrawal threshold after minus before administering test compound) [1] [g]	other results
CC(C)(O)Cn1cnc2ccc(Oc3ccc(Cl)cc3)cc21 [Example 20, 1-[6-(4-chlorophenoxy)-1H-benzimidazol-1-yl]-2-methylpropan-2-ol]	–	2.9	inhibition at 10 µM [2]: 91%
O[C@H]1CC[C@@H](n2cnc3ccc(Oc4ccc(C(F)(F)F)cn4)cc32)CC1 [Example 118, cis-4-(6-{[5-(trifluoromethyl)pyridin-2-yl]oxy}-1H-benzimidazol-1-yl)cyclohexanol]	33	3.4	–
COc1cc(C(F)(F)F)ccc1-c1ccc2c(c1)ncn2CC1(O)COC1 [Example 205, 3-({5-[2-methoxy-4-(trifluoromethyl)phenyl]-1H-benzimidazol-1-yl}methyl)oxetan-3-ol]	46	1.6	–
C[C@H](n1cnc2ccc(Oc3ccc(C(F)(F)F)cn3)cc21)C(C)(C)O [Example 229, (3S)-2-methyl-3-(6-{[5-(trifluoromethyl)pyridin-2-yl]oxy}-1H-benzimidazol-1-yl)butan-2-ol]	32	3.9	–
OC1(Cn2cnc3ccc(Oc4ccc(OC(F)(F)F)cc4)cc32)COC1 [Example 94, 3-({6-[4-(trifluoromethoxy)phenoxy]-1H-benzimidazol-1-yl}methyl)oxetan-3-ol]	73	4.9	–
CC(C)(O)Cn1cnc2ccc(Oc3ccc(F)cc3)cc21 [Example 1, 1-[6-(4-fluorophenoxy)-1H-benzimidazol-1-yl]-2-methylpropan-2-ol]	83	2.8	–
CC(C)(O)Cn1cnc2cc(-c3ccc(OC(F)(F)F)cc3)ccc21 [Example 179, 2-methyl-1-{5-[4-(trifluoromethoxy)phenyl]-1H-benzimidazol-1-yl}propan-2-ol]	61	6.5	–
CC(C)(O)CCn1cnc2ccc(Oc3ccc(C(F)(F)F)cn3)cc21 [Example 59, 2-methyl-4-(6-{[5-(trifluoromethyl)pyridin-2-yl]oxy}-1H-benzimidazol-1-yl)butan-2-ol]	49	5.1	–
CC(C)(O)Cn1cnc2ccc(Oc3ccc(CC(F)(F)F)cn3)cc21 [Example 60, 2-methyl-1-(6-{[5-(2,2,2-trifluoroethyl)pyridin-2-yl]oxy}-1H-benzimidazol-1-yl)propan-2-ol]	52	–	–
CC(C)(O)Cn1cnc2cc(-c3ccc(N4CCOCC4)cc3)ccc21 [Example 177]	54	–	–
C[C@]1(O)C[C@@H](n2cnc3ccc(Oc4ccc(OC(F)(F)F)cn4)cc32)C1 [Example 121]	21	–	–
Cc1ccc(-c2ccc3ncn(CC(C)(C)O)c3c2)cn1 [Example 126]	–	–	inhibition at 100 µM [2, 4]: 7%
CC(C)(O)Cn1cnc2ccc(-c3ccc(N4CCOCC4)nc3)cc21 [Example 127]	–	–	inhibition at 100 µM [2, 4]: 16%
COc1cccc(-c2ccc3ncn(CC4(O)COC4)c3c2)c1Cl [Example 167]	71	–	–
FC(F)(F)c1ccc(-c2ccc3ncn(CC4CCCO4)c3c2)nc1 (centres unmarked) [Example 8]	32	–	–
CC(C)OCCn1cnc2ccc(Oc3ccc(F)cc3)cc21 [Example 3, 6-(4-fluorophenoxy)-1-[2-(propan-2-yloxy)ethyl]-1H-benzimidazole]	65	–	–
OC1(Cn2cnc3cc(-c4cccc(C(F)(F)F)c4Cl)ccc32)COC1 [Example 217]	60	–	–
OC1(Cn2cnc3ccc(Oc4ccc(C(F)(F)F)cn4)cc32)COC1 [Example 56, 3-[(6-{[5-(trifluoromethyl)pyridin-2-yl]oxy}-1H-benzimidazol-1-yl)methyl]oxetan-3-ol]	45	–	–
COc1cc(-c2ccc3ncn(CC4(O)COC4)c3c2)cc(C(F)(F)F)c1 [Example 163]	47	–	–
OC1(Cn2cnc3cc(-c4cc(F)cc(Cl)c4)ccc32)COC1 [Example 214]	42	–	–
Cc1c(-c2ccc3ncn(CC4(O)COC4)c3c2)cccc1C(F)(F)F [Example 166]	54	–	–
OC1(Cn2cnc3ccc(-c4cc(Cl)cc(Cl)c4)cc32)COC1 [Example 158]	53	–	–
CC(C)(O)Cn1cnc2cc(Oc3cnc(C(F)(F)F)cn3)ccc21 [Example 51, 2-methyl-1-(5-{[5-(trifluoromethyl)pyrazin-2-yl]oxy}-1H-benzimidazol-1-yl)propan-2-ol]	44	–	–
CC(C)(O)CCn1cnc2ccc(Oc3ccc(Cl)cc3)cc21 [Example 101, 4-[6-(4-chlorophenoxy)-1H-benzimidazol-1-yl]-2-methylbutan-2-ol]	43	1.4	–

Second part, led by results:

inhibition at 10 µM [2, 3] [%]	SMILES	extension width (g) of reaction thresholds (50% paw withdrawal threshold after minus before administering test compound) [1] [g]	other results
64	CC(C)(O)Cn1cnc2ccc(-c3ccc(C(F)(F)F)cc3F)cc21 [Example 123, 1-{6-[2-fluoro-4-(trifluoromethyl)phenyl]-1H-benzimidazol-1-yl}-2-methylpropan-2-ol]	1.3	–
82	CC(C)(O)Cn1cnc2ccc(Oc3ccc(C(F)(F)F)cn3)cc21 [Example 28, 2-methyl-1-(6-{[5-(trifluoromethyl)pyridin-2-yl]oxy}-1H-benzimidazol-1-yl)propan-2-ol]	6	–
59	COc1cc(C(F)(F)F)ccc1-c1ccc2ncn(CC3(O)COC3)c2c1 [Example 148, 3-({6-[2-methoxy-4-(trifluoromethyl)phenyl]-1H-benzimidazol-1-yl}methyl)oxetan-3-ol]	3.7	–
47	OC1(Cn2cnc3ccc(-c4ccc(C(F)(F)F)cc4Cl)cc32)COC1 [Example 150]	–	–
70	CC(C)(O)Cn1cnc2ccc(-c3ccc(C(F)(F)F)cc3Cl)cc21 [Example 136]	–	–
45	CC(C)(O)Cn1cnc2cc(-c3ccc(C(F)(F)F)cc3F)ccc21 [Example 181, 1-{5-[2-fluoro-4-(trifluoromethyl)phenyl]-1H-benzimidazol-1-yl}-2-methylpropan-2-ol]	2.5	–
65	CC(C)(O)Cn1cnc2ccc(-c3ccc(Cl)cc3Cl)cc21 [Example 132]	–	–
62	CC(C)(O)Cn1cnc2ccc(-c3ccc(Cl)cc3C(F)(F)F)cc21 [Example 131]	–	–
66	CC(C)(O)CCn1cnc2ccc(-c3ccc(C(F)(F)F)cc3F)cc21 [Example 174]	–	–
63	OC1(Cn2cnc3ccc(-c4cc(C(F)(F)F)ccc4Cl)cc32)COC1 [Example 162]	–	–
